Data published in ChEMBL document CHEMBL1201862, “PubChem BioAssay data set” (2004).
The source made the active and inactive calls.

Columns and labels:
[1] = biological target: Beta-2 adrenergic receptor (Homo sapiens, UniProt P07550); assay: ADRB2 activation measured by internalization – cell-based, FAP fluorogen, flow cytometry, cherry pick 1, dose response (AID 588763); format: functional
[2] = biological target: T1, Voltage-gated N-type calcium channel alpha-1B subunit/Amyloid beta A4 precursor protein-binding family A member 1 (Homo sapiens, UniProt Q00975+Q02410); format: protein assay
T1 sequence (Q00975 whole entry): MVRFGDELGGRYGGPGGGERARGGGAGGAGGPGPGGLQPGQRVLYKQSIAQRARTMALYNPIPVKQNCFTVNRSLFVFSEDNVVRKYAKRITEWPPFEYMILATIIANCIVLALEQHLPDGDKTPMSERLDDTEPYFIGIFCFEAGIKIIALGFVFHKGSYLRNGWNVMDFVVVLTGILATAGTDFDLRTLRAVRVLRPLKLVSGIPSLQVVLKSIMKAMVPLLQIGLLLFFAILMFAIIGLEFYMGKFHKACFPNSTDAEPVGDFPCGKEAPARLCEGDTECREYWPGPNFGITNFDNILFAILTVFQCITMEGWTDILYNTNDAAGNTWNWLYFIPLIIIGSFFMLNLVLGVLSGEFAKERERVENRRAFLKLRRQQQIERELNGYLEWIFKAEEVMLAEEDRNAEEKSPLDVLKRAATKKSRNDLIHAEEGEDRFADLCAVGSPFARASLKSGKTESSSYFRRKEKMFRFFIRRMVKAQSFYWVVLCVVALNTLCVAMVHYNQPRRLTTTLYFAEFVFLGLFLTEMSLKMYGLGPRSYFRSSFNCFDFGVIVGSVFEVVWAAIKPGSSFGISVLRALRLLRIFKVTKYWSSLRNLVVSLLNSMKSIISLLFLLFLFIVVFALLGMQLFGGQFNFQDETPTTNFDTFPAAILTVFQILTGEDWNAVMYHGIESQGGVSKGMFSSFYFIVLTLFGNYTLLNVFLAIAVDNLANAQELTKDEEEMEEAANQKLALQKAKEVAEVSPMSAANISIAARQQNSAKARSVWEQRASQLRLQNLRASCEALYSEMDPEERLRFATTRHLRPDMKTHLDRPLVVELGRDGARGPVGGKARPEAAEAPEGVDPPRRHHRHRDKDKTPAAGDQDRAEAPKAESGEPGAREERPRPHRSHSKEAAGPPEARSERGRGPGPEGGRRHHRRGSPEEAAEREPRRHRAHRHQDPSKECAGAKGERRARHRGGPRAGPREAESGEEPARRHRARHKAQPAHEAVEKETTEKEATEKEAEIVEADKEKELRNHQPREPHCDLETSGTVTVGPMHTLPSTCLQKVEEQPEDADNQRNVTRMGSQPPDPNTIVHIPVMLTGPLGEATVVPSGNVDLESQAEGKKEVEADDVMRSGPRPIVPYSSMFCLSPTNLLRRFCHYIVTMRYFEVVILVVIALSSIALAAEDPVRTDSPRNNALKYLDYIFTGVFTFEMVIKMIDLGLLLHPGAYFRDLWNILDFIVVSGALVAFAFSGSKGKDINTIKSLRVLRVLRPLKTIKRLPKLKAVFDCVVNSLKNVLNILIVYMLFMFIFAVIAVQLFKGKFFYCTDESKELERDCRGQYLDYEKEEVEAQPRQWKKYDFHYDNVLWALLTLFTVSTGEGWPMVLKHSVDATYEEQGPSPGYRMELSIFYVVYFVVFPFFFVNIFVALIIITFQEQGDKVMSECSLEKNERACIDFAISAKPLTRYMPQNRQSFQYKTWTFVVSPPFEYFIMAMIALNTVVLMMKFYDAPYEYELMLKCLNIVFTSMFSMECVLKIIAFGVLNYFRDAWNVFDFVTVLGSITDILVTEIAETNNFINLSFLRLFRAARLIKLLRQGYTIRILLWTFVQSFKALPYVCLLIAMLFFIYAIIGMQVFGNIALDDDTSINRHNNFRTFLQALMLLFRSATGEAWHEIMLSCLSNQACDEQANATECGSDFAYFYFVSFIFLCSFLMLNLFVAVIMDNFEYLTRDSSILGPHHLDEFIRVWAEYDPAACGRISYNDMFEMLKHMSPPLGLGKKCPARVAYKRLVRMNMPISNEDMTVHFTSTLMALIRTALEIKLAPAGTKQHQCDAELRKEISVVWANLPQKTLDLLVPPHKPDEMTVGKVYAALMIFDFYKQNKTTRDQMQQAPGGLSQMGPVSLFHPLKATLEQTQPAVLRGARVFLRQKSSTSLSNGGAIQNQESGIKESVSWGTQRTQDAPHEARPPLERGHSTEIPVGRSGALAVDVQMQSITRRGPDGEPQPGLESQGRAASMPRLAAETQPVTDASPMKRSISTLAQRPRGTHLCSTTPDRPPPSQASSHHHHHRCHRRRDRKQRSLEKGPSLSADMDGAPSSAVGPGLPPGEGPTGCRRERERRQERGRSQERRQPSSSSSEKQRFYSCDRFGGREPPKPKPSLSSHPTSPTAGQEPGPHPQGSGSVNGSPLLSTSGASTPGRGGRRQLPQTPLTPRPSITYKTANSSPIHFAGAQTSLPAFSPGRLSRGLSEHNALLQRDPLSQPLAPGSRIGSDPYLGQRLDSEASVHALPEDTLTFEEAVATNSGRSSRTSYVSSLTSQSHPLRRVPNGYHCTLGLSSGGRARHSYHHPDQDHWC
T1 sequence (Q02410 whole entry): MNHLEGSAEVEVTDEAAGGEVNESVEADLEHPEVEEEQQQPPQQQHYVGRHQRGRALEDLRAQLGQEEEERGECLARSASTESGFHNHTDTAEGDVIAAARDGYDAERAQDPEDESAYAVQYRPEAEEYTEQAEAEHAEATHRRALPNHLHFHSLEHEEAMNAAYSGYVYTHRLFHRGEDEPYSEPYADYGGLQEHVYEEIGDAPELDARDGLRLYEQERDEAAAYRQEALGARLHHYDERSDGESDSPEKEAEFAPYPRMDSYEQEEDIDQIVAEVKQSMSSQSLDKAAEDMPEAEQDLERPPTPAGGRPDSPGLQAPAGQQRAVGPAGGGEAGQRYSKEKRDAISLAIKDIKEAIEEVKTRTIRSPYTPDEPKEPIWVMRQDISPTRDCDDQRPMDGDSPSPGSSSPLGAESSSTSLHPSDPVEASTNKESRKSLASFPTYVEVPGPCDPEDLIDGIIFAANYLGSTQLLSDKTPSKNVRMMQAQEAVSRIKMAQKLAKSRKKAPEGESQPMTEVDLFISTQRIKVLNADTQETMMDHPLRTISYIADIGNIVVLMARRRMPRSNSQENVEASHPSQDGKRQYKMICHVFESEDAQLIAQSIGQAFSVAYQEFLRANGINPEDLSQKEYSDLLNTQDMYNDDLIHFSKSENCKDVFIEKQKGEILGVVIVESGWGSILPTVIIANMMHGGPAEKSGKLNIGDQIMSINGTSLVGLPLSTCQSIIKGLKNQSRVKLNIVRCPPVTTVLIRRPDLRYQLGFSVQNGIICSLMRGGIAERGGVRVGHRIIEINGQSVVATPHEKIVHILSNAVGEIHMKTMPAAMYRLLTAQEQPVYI

[3] = biological target: T2, Apoptotic protease-activating factor 1 (Homo sapiens, UniProt O14727); assay: activation of Apaf-1 mediated apoptosis – fluorescent, uHTS hits, dose response (AID 588554); format: functional
T2 sequence (O14727 whole entry): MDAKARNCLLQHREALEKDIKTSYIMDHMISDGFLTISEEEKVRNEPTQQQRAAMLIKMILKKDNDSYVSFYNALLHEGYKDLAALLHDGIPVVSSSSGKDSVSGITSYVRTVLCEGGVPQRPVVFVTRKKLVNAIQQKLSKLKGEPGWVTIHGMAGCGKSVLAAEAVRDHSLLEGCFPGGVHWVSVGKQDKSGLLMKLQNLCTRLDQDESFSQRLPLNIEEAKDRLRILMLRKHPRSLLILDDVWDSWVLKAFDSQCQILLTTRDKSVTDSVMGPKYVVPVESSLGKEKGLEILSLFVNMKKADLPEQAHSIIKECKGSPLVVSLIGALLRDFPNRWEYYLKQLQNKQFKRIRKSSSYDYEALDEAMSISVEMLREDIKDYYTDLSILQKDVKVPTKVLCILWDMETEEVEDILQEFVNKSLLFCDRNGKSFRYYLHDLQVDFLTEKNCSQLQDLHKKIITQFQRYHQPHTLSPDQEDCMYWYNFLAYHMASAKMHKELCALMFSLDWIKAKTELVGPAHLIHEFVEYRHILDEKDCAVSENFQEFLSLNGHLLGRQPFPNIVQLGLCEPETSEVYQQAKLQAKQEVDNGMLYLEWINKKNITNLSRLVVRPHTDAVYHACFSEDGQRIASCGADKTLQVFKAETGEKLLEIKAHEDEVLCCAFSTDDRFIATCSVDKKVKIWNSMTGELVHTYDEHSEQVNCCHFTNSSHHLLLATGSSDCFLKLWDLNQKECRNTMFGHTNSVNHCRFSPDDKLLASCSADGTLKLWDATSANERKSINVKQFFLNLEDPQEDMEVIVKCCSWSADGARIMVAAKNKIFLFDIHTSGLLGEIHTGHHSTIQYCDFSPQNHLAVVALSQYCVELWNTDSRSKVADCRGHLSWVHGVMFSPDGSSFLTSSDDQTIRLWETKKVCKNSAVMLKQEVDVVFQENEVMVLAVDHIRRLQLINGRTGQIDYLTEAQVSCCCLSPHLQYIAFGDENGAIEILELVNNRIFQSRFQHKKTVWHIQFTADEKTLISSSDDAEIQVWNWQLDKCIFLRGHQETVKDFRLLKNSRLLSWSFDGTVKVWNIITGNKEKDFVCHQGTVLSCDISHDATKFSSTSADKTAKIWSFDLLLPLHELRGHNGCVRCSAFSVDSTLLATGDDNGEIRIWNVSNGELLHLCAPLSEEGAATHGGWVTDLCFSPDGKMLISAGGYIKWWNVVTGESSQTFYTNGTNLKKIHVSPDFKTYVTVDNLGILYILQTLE

[4] = biological target: Eukaryotic translation initiation factor 4H (Homo sapiens, UniProt Q15056); assay: eIF4H binding inhibition – biochemical, uHTS, fluorescence polarization, translation initiation inhibitor project, primary screen (AID 2012)
[5] = biological target: T3, Dual specificity protein phosphatase 6 (Rattus norvegicus, UniProt Q64346); assay: inhibition of rat DUSP6 enzyme activity – biochemical, in vitro, primary screen (AID 425)
T3 sequence (Q64346 whole entry): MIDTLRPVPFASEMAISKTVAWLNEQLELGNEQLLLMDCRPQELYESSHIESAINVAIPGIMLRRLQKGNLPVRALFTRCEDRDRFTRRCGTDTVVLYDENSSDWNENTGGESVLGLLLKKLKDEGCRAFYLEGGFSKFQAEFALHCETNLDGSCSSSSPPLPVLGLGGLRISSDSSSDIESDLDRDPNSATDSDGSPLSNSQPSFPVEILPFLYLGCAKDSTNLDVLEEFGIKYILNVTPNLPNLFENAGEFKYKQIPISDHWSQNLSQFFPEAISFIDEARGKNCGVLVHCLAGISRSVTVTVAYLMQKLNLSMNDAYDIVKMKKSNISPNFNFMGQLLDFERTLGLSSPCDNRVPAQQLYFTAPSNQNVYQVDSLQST

[6] = biological target: Polyadenylate-binding protein 1 (Homo sapiens, UniProt P11940); assay: blockers of PABP interaction with poly(A) – biochemical, fluorescence polarization, […] (AID 2014)
[7] = biological target: Eukaryotic translation initiation factor 4E (Mus musculus, UniProt P63073); assay: blockers of eIF4G binding by eIF4E – biochemical, TR-FRET, dose response (AID 855); format: functional;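 also: potency for disrupting eIF4E binding to eIF4GI seen as loss of FRET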
Eukaryotic translation initiation factor 4E, sequence (P63073 whole entry): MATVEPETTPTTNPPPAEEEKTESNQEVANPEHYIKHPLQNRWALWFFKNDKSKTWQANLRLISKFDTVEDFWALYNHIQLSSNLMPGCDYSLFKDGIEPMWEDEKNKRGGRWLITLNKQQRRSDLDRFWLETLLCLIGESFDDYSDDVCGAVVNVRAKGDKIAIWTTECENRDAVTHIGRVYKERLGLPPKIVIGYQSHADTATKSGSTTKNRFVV

[8] = biological target: Beta-galactosidase (Escherichia coli, UniProt Q8VNN2); assay: PubChem AID 485352; format: functional
Beta-galactosidase, sequence (Q8VNN2 whole entry): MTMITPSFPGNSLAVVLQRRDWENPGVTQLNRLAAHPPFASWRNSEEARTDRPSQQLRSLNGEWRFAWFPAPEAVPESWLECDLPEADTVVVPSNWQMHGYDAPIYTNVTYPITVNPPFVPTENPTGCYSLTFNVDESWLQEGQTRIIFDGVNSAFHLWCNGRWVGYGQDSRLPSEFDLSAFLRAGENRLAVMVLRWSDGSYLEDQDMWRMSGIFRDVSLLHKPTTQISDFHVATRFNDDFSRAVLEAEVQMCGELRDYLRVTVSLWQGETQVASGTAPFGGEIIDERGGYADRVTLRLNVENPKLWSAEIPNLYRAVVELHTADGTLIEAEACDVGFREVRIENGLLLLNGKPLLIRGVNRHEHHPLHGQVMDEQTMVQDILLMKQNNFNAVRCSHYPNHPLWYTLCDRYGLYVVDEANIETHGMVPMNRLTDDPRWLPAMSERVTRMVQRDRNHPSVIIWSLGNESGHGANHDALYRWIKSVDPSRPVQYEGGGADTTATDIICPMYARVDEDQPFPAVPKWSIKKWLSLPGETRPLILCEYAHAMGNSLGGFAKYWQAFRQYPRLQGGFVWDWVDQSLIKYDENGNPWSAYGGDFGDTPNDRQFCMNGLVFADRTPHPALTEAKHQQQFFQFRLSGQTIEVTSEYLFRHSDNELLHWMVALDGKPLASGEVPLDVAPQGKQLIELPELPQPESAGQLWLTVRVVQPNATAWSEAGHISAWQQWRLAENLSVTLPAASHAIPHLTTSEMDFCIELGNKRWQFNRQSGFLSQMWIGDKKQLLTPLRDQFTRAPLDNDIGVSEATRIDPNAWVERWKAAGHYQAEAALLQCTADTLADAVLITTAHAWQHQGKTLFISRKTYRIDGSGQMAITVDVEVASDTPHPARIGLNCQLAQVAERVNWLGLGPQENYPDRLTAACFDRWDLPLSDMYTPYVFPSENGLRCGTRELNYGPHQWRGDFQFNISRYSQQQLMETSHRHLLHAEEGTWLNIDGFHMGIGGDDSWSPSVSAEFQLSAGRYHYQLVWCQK

[9] = biological target: T4, Dual specificity protein phosphatase 3 (Homo sapiens, UniProt P51452); assay: VHR1 phosphatase inhibitors, biochemical (AID 1878)
T4 sequence (P51452 whole entry): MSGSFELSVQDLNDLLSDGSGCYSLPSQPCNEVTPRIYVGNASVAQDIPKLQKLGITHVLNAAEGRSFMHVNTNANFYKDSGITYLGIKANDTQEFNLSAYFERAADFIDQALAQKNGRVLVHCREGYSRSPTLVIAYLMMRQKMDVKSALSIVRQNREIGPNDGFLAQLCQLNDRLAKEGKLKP

[10] = biological target: T1, Voltage-gated N-type calcium channel alpha-1B subunit/Amyloid beta A4 precursor protein-binding family A member 1; format: protein assay; remark: listed apart in the source
[11] = biological target: T5, Type-1 angiotensin II receptor (Homo sapiens, UniProt P30556); assay: antagonism of angiotensin II type 1 receptor – cell-based, uHTS hits, selectivity assay for APJ receptor antagonist project, dose response (AID 463214); format: functional;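 also: antagonist potency against angiotensin II stimulated AT1 response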
T5 sequence (P30556 whole entry): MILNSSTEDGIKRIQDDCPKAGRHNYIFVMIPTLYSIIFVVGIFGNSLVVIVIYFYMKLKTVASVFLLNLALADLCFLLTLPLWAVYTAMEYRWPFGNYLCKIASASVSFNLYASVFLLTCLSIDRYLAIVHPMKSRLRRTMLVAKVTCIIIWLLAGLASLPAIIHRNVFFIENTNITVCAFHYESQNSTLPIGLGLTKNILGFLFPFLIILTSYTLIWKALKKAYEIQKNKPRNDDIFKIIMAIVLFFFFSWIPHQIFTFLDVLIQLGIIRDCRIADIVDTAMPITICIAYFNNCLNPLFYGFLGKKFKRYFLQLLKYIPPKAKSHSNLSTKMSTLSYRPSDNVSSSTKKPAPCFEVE

[12] = biological target: T4, Dual specificity protein phosphatase 3; assay: VHR1 phosphatase inhibitors, primary screen, biochemical, absorbance, uHTS (AID 1654)
[13] = system: HEK293; assay: SAR Analysis of small molecule inhibitors of B-cell specific antigen receptor-induced NF-kB activation in a HEK-293T cell line using a luminescence assay - Set 2. [Related pubchem assays (depositor defined):AID435022, AID435025, AID489021]; format: functional, cell-based; details: Homo sapiens
[14] = system: HEK293; assay: HEK293T cell viability loss, resazurin readout – resazurin fluorescence, cytotoxicity control for NF-kB activator project, SAR follow-up (AID 493251); format: functional, cell-based; details: Homo sapiens
[15] = system: Jurkat; assay: SAR Analysis of small molecule inhibitors of […] specific antigen receptor-induced NF-kB activation in a Jurkat cell line using a luminescence assay - Set 3. [Related pubchem assays (depositor defined):AID435022, AID435025, AID465]; format: functional, cell-based; details: Homo sapiens
[16] = system: Candida albicans; assay: C. albicans growth inhibition with fluconazole – CaCi-2 strain, Alamar Blue, dry powder, set 4, dose response (AID 488943); format: functional, organism-based
[17] = system: Candida albicans; assay: antifungal activity against resistant Candida strain – CaCi-8, fluconazole, Alamar Blue, dry powder, dose response (AID 488807); format: functional, organism-based
[18] = system: Candida albicans; assay: Candida growth effect without fluconazole – C. albicans CaCi-2, dry powder, counter-screen for antifungal drug resistance project, dose response (AID 488802); format: functional, organism-based
[19] = system: Candida albicans; assay: fluconazole-resistant Candida strain growth inhibitors – CaCi-8 strain, dry powder, set 4, dose response (AID 488950); format: functional, organism-based
[20] = biological target: T6, Hexokinase HKDC1 (Homo sapiens, UniProt Q2TB90); assay: SAR analysis of small molecule inhibitors of hexokinase domain containing I (HKDC1). [Related pubchem assays (depositor defined):AID493160, AID493190]; format: functional
T6 sequence (Q2TB90 whole entry): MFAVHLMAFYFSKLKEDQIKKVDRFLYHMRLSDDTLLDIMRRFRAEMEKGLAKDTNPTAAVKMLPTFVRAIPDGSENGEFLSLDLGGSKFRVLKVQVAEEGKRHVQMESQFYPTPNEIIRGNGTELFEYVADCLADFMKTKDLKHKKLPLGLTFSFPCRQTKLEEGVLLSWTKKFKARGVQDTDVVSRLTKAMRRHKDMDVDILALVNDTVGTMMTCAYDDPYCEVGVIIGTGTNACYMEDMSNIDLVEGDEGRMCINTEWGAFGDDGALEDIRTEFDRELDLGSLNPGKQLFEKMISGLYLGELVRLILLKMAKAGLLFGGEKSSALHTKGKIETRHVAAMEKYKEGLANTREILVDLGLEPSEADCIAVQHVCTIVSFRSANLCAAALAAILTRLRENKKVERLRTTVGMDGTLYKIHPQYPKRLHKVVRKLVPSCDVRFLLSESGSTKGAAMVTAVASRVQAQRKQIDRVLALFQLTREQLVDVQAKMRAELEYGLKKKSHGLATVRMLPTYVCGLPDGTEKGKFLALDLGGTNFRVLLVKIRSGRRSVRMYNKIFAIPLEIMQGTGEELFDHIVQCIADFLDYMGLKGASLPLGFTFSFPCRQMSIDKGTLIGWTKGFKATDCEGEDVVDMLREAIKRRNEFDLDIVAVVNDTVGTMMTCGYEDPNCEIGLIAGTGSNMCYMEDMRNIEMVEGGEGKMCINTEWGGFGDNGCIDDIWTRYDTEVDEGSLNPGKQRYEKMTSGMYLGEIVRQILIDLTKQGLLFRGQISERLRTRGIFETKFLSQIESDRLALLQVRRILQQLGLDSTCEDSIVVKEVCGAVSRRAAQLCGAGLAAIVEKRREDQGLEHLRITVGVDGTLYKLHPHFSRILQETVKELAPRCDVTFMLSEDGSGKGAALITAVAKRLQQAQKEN

[21] = biological target: G-protein coupled receptor 55 (Homo sapiens, UniProt Q9Y2T6); assay: selective activators of receptor GPR55 – imaging, U2OS cells, beta-arrestin-GFP redistribution, primary screen (AID 1961); format: functional
G-protein coupled receptor 55, sequence (Q9Y2T6 whole entry, the tested form may be a part): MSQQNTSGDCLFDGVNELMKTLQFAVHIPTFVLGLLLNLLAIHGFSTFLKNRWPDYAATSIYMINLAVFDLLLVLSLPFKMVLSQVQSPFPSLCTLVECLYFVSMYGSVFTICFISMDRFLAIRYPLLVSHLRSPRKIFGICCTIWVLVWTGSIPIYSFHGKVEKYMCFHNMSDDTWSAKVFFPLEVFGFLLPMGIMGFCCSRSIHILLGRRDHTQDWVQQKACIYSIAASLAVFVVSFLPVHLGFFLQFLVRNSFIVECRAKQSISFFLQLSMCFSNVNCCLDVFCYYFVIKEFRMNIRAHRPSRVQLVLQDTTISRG

[22] = biological target: Hexokinase-1 (Homo sapiens, UniProt P19367); assay: SAR analysis of small molecule inhibitors of hexokinase domain containing I (HKDC1) in the hexokinase 1 selectivity assay. [Related pubchem assays (depositor defined):AID493160, AID493190]; format: functional

CCCCN(C(=O)c1ccc(NC(=O)C(C)C)cc1)c1ccccc1
EC50 [1]: 0.049 µM (active)

COc1cc(/C=C2\SC(=O)N(c3cccc(Cl)c3)C2=O)cc([N+](=O)[O-])c1O
IC50 [2]: > 50 µM (inactive) | EC50 [3]: 5.8 µM (active) | IC50 [4]: 4.99 µM (active) | IC50 [5]: > 158 µM (not active) | IC50 [6]: > 100 µM (inactive) | IC50 [7]: 21.9 µM (active) | EC50 [8]: 30.8 µM (active) | IC50 [9]: 2.21 µM (active) | IC50 [10]: 3.5 µM (active) | IC50 [11]: 27.3 µM (not active) | IC50 [12]: 3.03 µM (active)

COc1ccccc1NC(=O)CCc1nc(-c2ccc(C(C)(C)C)cc2)no1
IC50 [13]: 0.44 µM (active) | IC50 [14]: 56 µM (inactive) | IC50 [15]: 0.665 µM (active)

Cc1ccc(C(=O)N2CCN(c3ccnc4cc(Cl)ccc34)CC2)cc1
AC50 [16]: 1.78 µM (active) | AC50 [17]: 7.07 µM (active) | AC50 [18]: 31.8 µM (active) | AC50 [19]: 1.33 µM (active)

Cc1ccc(S(=O)(=O)N2CCOCC2)cc1NC(=O)CSc1nnc2cc(C)c3ccccc3n12
IC50 [20]: 43.2 µM (inactive) | EC50 [21]: 17.4 µM (inactive) | IC50 [22]: 50.3 µM (inactive)
